Where two headings read alike, the source gives them in different places.
Legend:
SARS-CoV-2 = experiment: Virus yield reduction assay, SARS-CoV-2 (virus titer by RT-qPCR); assay type: cell-based; conditions: for reduction of virus titer compared to solvent control: 5% FBS; for reduction of virus titer compared to solvent control / reduction of the virus titer: 24 h; for reduction of the virus titer: Calu-3 and Caco-2 cells
Method: (§1) Calu-3 and Caco-2 cells were seeded in 24-well plates (Greiner Bio-One GmbH, Frickenhausen, Germany) and grown to 90% confluence. The cells were washed once with infection medium [IMDM supplemented with 0.2% bovine serum albumin (BSA) (Carl Roth GmbH + Co. KG, Karlsruhe, Germany) and 1% penicillin–streptomycin] prior to infection with a multiplicity of infection (MOI) of 0.01 of IAV PR8 or SARS-CoV-2 for 1 h in 200 µL of infection medium per well. Afterwards, the virus inoculum was removed completely, and the cells were washed once with infection medium and then treated with 1 mL per well of different concentrations of zapnometinib in infection medium with 1% dimethyl sulfoxide (DMSO) (Merck Millipore, Burlington, MA, USA) for 24 h at 37°C, 5% CO2. Supernatants were harvested and stored at −80°C for subsequent determination of virus titer and EC50 value. Cell lysates were prepared as described in the “Preparation of cell lysates and WES™ analysis” section for WES™ analysis.
(§2) The viral titers of IAV and SARS-CoV-2 viruses were determined using a real-time one-step multiplex RT-qPCR method. Briefly, viral nucleic acid extraction was performed using a QIAamp Viral RNA Mini Kit (Qiagen, Venlo, Netherlands) according to the manufacturer’s instructions. A TaqMan-based RT-qPCR assay was carried out using a QuantiNova Pathogen kit (Qiagen, Venlo, Netherlands) with specific primers targeting the SARS-CoV-2 N gene (2019-CoV2-N1F: […], 2019-CoV2-N1R: […], 2019-CoV2-N1P [6FAM]: […] [BHQ1]) and M gene for IAV according to the WHO guidelines. The viral genome copies per mL (gc/mL) were determined based on a standard curve prepared with 10-fold serial dilutions of the target gene. For quality control, nuclease-free water was included in each set of extractions as a negative control to monitor any possible cross-contamination. Moreover, an artificial exogenous QuantiNova RNA internal control (Qiagen, Venlo, Netherlands) was included during the nucleic acid purification to monitor the RNA purification efficiency and the RT-PCR amplification. A Rotor-Gene Q™ Real-Time PCR detection system (Qiagen, Venlo, Netherlands) was used for amplification, and the data were analyzed using Q-Rex software (Qiagen, Venlo, Netherlands).
(§3) For EC50 determination, a virus yield reduction assay was performed. The virus titer in the cell culture supernatant was determined and normalized to the solvent control. The EC50 value was determined using the “log(inhibitor) vs. normalized response - Variable slope” equation in GraphPad Prism version 9.4.0.

SARS-CoV-2 N = assay type: cell-based; conditions: MOI 0.01, 24 h; for reduction of SARS-CoV-2 N (N/ERK2 normalized to solvent control): both cell lines
IAV PR8 = experiment: Virus yield reduction assay, IAV PR8 (virus titer by RT-qPCR); assay type: cell-based, Influenza A virus, strain: A/Puerto Rico/8/1934 (H1N1); conditions: 0.2% BSA; for reduction of the virus titer: Calu-3 and Caco-2 cells, 24 h
Method: as §1, §2, §3

TMPRSS2 = TMPRSS2 expression by flow cytometry; assay type: cell-based, Homo sapiens; conditions: Caco-2 cells, 24 h
Method: For flow cytometry analysis, 6 × 10^5 Caco-2 cells were seeded per well in six-well plates (Greiner Bio-One, Kremsmünster, Austria) and incubated for 24 h at 37°C, 5% CO2. Treatment with zapnometinib or a solvent control (1% DMSO) in medium containing 0.2% BSA was applied for 24 h. A single-cell solution was prepared using TrypLE reagent (Thermo Fisher Scientific, Waltham, MA, USA). Prior to staining, cells were treated with an FcR blocking reagent (Miltenyi Biotec, Bergisch Gladbach, Germany) for 10 min at 4°C. The cells were then stained with either a PE Mouse IgG1Isotype control antibody (BioLegend, San Diego, CA, USA) or a PE anti-human TMPRSS2 Antibody (BioLegend, San Diego, CA, USA), followed by a live-dead staining using the LIVE/DEAD™ Fixable Far Red Dead Cell Stain Kit (Thermo Fisher Scientific, Waltham, MA, USA). Cells were analyzed using the BD FACSCanto II flow cytometer (Becton Dickinson, Franklin Lakes, New Jersey, USA) and the FlowJo software (Becton Dickinson, Franklin Lakes, New Jersey, USA).

Q: How did the “reduction of virus titer compared to solvent control” value (“reduction of virus titer” below) (SARS-CoV-2; 6.25 µM, Caco-2 cells) turn out when `O=C(O)c1ccc(F)c(F)c1Nc1ccc(I)cc1Cl` [zapnometinib, 2-(2-chloro-4-iodophenylamino)-N-3,4-difluoro benzoic acid] was run?
A: No significant reduction

Q: And the “reduction of virus titer” value (SARS-CoV-2; 12.5 µM, Caco-2 cells)?
A: No significant reduction

Q: What about the “reduction of virus titer” value (SARS-CoV-2; 25 µM, Caco-2 cells) of the same compound?
A: > 39%

Q: What about the “reduction of the virus titer” value (SARS-CoV-2; 25 µM, 0.2% BSA) of the same compound?
A: ≥ 50%

Q: And the “reduction of virus titer” value (SARS-CoV-2; 50 µM, Caco-2 cells)?
A: > 60%

Q: What about the “reduction of the virus titer” value (SARS-CoV-2; 50 µM, 0.2% BSA) of the same compound?
A: ≥ 50%

Q: And the “reduction of virus titer” value (SARS-CoV-2; 75 µM, Caco-2 cells)?
A: > 94%

Q: What about the “reduction of the virus titer” value (SARS-CoV-2; 75 µM, 0.2% BSA) of the same compound?
A: > 90%

Q: What about the “reduction of virus titer” value (SARS-CoV-2; 100 µM, Caco-2 cells) of the same compound?
A: > 99%

Q: What about the “reduction of the virus titer” value (SARS-CoV-2; 100 µM, 0.2% BSA) of the same compound?
A: > 90%

Q: And the EC50 (SARS-CoV-2; Caco-2 cells, 0.2% BSA, MOI 0.01, 24 h, read-out: EC50 value against SARS-CoV-2 (FI))?
A: 22.9 µM

Q: What about the EC50 (SARS-CoV-2; Severe acute respiratory syndrome coronavirus 2, Caco-2, 24 h, Caco-2 cells, 0.2% BSA, MOI 0.01, 24 h, read-out: EC50 value against SARS-CoV-2 (FI)) of the same compound?
A: 22.9 µM

Q: What about the EC50 (SARS-CoV-2; Severe acute respiratory syndrome coronavirus 2, Caco-2, Caco-2 cells, medium containing 5% FBS, MOI 0.01, treatment 1 h post-infection, titer after 24 h, read-out: EC50 value against SARS-CoV-2) of the same compound?
A: 34.2 µM

Q: And the EC50 (SARS-CoV-2; Severe acute respiratory syndrome coronavirus 2, Calu-3, 24 h, Calu-3 cells, 0.2% BSA, MOI 0.01, 24 h, read-out: EC50 value against SARS-CoV-2 (FI))?
A: 19.7 µM

Q: What about the EC50 (SARS-CoV-2; Severe acute respiratory syndrome coronavirus 2, summary for Calu-3 and Caco-2 cells, 0.2% BSA, read-out: EC50 values for SARS-CoV-2 in both cell lines) of the same compound?
A: ~20 µM

Q: What about the “reduction of SARS-CoV-2 N (N/ERK2 normalized to solvent control)” value (SARS-CoV-2 N; 12.5 µM) of the same compound?
A: approximately 50%

Q: And the “reduction of SARS-CoV-2 N (N/ERK2 normalized to solvent control)” value (SARS-CoV-2 N; 50 µM)?
A: > 70%

Q: And the “reduction of SARS-CoV-2 N (N/ERK2 normalized to solvent control)” value (SARS-CoV-2 N; 100 µM)?
A: > 80%

Q: And the “lowest concentration at which SARS-CoV-2 N was significantly reduced compared to solvent control” value (SARS-CoV-2 N)?
A: 12.5 µM

Q: What about the “reduction of the virus titer” value (IAV PR8; 12.5 µM) of the same compound?
A: ≥ 50%

Q: And the “reduction of the virus titer” value (IAV PR8; 25 µM)?
A: ≥ 50%

Q: What about the “reduction of the virus titer” value (IAV PR8; 100 µM) of the same compound?
A: > 90%

Q: And the EC50 (IAV PR8; Caco-2 cells, MOI 0.01, 24 h, read-out: EC50 value against IAV PR8)?
A: 5.72 µM

Q: And the EC50 (IAV PR8; Calu-3 cells, MOI 0.01, 24 h, read-out: EC50 value against IAV PR8)?
A: 7.13 µM

Q: What about the EC50 (IAV PR8; Influenza A virus, PR8, Caco-2, 24 h, Caco-2 cells, MOI 0.01, 24 h, read-out: EC50 value against IAV PR8) of the same compound?
A: 5.72 µM

Q: What about the EC50 (IAV PR8; Influenza A virus, PR8, Calu-3, 24 h, Calu-3 cells, MOI 0.01, 24 h, read-out: EC50 value against IAV PR8) of the same compound?
A: 7.13 µM

Q: And the EC50 (IAV PR8; Influenza A virus, PR8, summary for Calu-3 and Caco-2 cells, read-out: EC50 values for IAV PR8 in both cell lines)?
A: < 10 µM

Q: What about the “increase of TMPRSS2 expression” value (TMPRSS2; 50 µM) of the same compound?
A: 14%

Q: What about the “increase of TMPRSS2 expression” value (TMPRSS2; 100 µM) of the same compound?
A: 17%
